Some test systems named below: 786-0 renal; LOX IMVI melanoma; ACHN renal; SK-MEL-28 melanoma; U251 CNS; HT29 colon; M14 melanoma; K-562 leukemia; SW-620 colon; SNB-75 CNS.
Holding throughout (experiment): DTP human tumour cell line panel, 48 h

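Grown in 96-well plates, cells were treated for 48 hours with each compound at five concentrations. Insufficient inhibition: endpoint recorded as highest concentration tested. GI50: concentration for 50% inhibition of growth. TGI marks complete inhibition of growth.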

The term GI50 denotes the concentration at which growth is held to half of that of the control. In general, TGI refers to the concentration giving total growth inhibition. Higher therefore signals lower sensitivity of the cells.

For the compound `COc1cc2cc3c(c(O)c2c(O)c1-c1c(OC)cc2cc4c(c(O)c2c1O)C(=O)O[C@H](C)C4)C(=O)O[C@H](C)C3`, the GI50 in the test on 786-0 renal was 21.1 µM; in the test on LOX IMVI melanoma, 18 µM; with ACHN renal, 24.7 µM; in the test on SK-MEL-28 melanoma, 33 µM; in the test with U251 CNS it was 19.6 µM; with HT29 colon, 37.5 µM. The GI50 in the test on M14 melanoma was 25.7 µM; with K-562 leukemia, over 100 µM; in the test on SW-620 colon, 77.1 µM. Also, the concentration for total growth inhibition (TGI) in the test on 786-0 renal is 64.8 µM; in the test on LOX IMVI melanoma, 44.6 µM; with ACHN renal, 66.7 µM; with SK-MEL-28 melanoma, 99.1 µM; with U251 CNS, 48.1 µM; with HT29 colon it was over 100 µM. For the same compound, the TGI in the test with M14 melanoma is 57 µM; with K-562 leukemia, over 100 µM; in the test with SW-620 colon, over 100 µM.
Consider `COC(=O)c1sc(=NC(=S)N2CCCCC2)sc1C(=O)OC`, for which the concentration for total growth inhibition (TGI) in the test with 786-0 renal, in the test with ACHN renal, in the test with SNB-75 CNS, with SK-MEL-28 melanoma, with U251 CNS and with M14 melanoma was over 100 µM throughout. Moreover, the TGI in the test on K-562 leukemia and in the test on SW-620 colon was over 100 µM each time.
Take `O=c1cccccc1[O-].O=c1cccccc1[O-].O=c1cccccc1[O-].[Sm+3]`: the total growth inhibition concentration (TGI) in the test with 786-0 renal, in the test with LOX IMVI melanoma, in the test on ACHN renal, with U251 CNS, in the test with HT29 colon and in the test with M14 melanoma was over 100 µM each time. The TGI with K-562 leukemia and with SW-620 colon was over 100 µM in each case. Besides, in the test with U251 CNS, the GI50 is 13.8 µM.
On to `Oc1ccccc1C=Nc1nc(OCc2ccccc2)nc2[nH]ncc12`, for which the GI50 with 786-0 renal was 34.8 µM; with LOX IMVI melanoma, 18 µM; in the test on ACHN renal it was 28 µM; with SK-MEL-28 melanoma, 22.2 µM; in the test on U251 CNS, 22.4 µM; in the test on HT29 colon, 22.5 µM. Besides, the GI50 in the test on M14 melanoma is 21.6 µM; in the test with K-562 leukemia it was 30.3 µM; in the test on SW-620 colon, 27.4 µM. Moreover, the TGI in the test on 786-0 renal was over 100 µM; with LOX IMVI melanoma, 46.2 µM; with ACHN renal, over 100 µM; with SK-MEL-28 melanoma it was 43.1 µM; in the test with U251 CNS, 62 µM; in the test with HT29 colon, 49.3 µM. The TGI is 57.7 µM in the test with M14 melanoma, over 100 µM in the test on K-562 leukemia and 76.1 µM with SW-620 colon.
Take `O=C(c1ccccc1)C(Br)C(Br)c1ccccc1` (centres undefined): the GI50 in the test with 786-0 renal was 15.2 µM; in the test with LOX IMVI melanoma it was 1.82 µM; in the test on ACHN renal, 1.86 µM; in the test with SNB-75 CNS, 12.1 µM; with SK-MEL-28 melanoma, 3.59 µM; in the test with U251 CNS, 8.15 µM. For the same compound, the GI50 is 2.01 µM in the test with M14 melanoma and 1.69 µM in the test on SW-620 colon. Besides, the TGI with 786-0 renal stood at 28.7 µM; in the test with LOX IMVI melanoma, 3.41 µM; in the test on ACHN renal it was 3.38 µM; with SNB-75 CNS, 25.6 µM; with SK-MEL-28 melanoma, 13 µM; with U251 CNS, 20.9 µM. For the same compound, the TGI with M14 melanoma turned out to be 4.12 µM; in the test on SW-620 colon it was 3.28 µM.
In the case of `c1cncc(C2ONC3=NCCN32)c1` (centres undefined), the GI50 is 6.22 µM in the test on 786-0 renal; 8 µM in the test on ACHN renal; 22.4 µM in the test with SNB-75 CNS; over 100 µM in the test on SK-MEL-28 melanoma; 16.5 µM with U251 CNS; 35.1 µM in the test on HT29 colon. For the same compound, the GI50 is 64.3 µM in the test with M14 melanoma, 35.6 µM in the test on K-562 leukemia and 35.5 µM in the test with SW-620 colon. Further, the TGI in the test on 786-0 renal is 39.2 µM; with ACHN renal, 38.3 µM; with SNB-75 CNS it was 98.1 µM; in the test with SK-MEL-28 melanoma it was over 100 µM; with U251 CNS, 64.5 µM; in the test on HT29 colon it was over 100 µM. Also, the concentration for total growth inhibition (TGI) in the test with M14 melanoma, in the test with K-562 leukemia and with SW-620 colon was over 100 µM in each case.
As to `O=CC1=CCC2c3[nH]c4ccccc4c3CCN2C1` (centres undefined), the total growth inhibition concentration (TGI) with 786-0 renal was over 396 µM; with LOX IMVI melanoma it was 111 µM; with ACHN renal, over 396 µM; with SK-MEL-28 melanoma, 248 µM; in the test on U251 CNS, 195 µM; in the test on HT29 colon it was 273 µM. In addition, the TGI in the test with K-562 leukemia and in the test with SW-620 colon was over 396 µM each time.
Take `O=C1CNN=C(Cn2nc(-c3ccccc3)c3ccccc3c2=O)N1`: the TGI with 786-0 renal, in the test with ACHN renal, in the test with SNB-75 CNS, with SK-MEL-28 melanoma, in the test on U251 CNS and in the test on HT29 colon was over 100 µM in each case. The TGI with M14 melanoma, with K-562 leukemia and in the test with SW-620 colon was over 100 µM each time.
Consider `COC(=O)c1ccc2[nH]c(O)c(C(=Nc3ccc(N(C)C(=O)CN4CCN(C)CC4)cc3)c3ccccc3)c2c1`, for which the GI50 is 1.07 µM with 786-0 renal; 0.552 µM in the test on LOX IMVI melanoma; 1.13 µM with ACHN renal; 1.62 µM with SK-MEL-28 melanoma; 0.729 µM in the test with M14 melanoma; 0.241 µM in the test on K-562 leukemia. In addition, the GI50 with SW-620 colon was 0.795 µM. In addition, the TGI was determined as 2.83 µM in the test with 786-0 renal; 1.92 µM in the test on LOX IMVI melanoma; 4.12 µM in the test with ACHN renal; 3.34 µM in the test with SK-MEL-28 melanoma; 2.42 µM with M14 melanoma; 11.9 µM with K-562 leukemia. The compound further displayed a TGI in the test on SW-620 colon of 4.27 µM.
For `C/C(CC(=O)Nc1cccc([N+](=O)[O-])c1)=N\NC(=O)C[n+]1ccccc1`, the total growth inhibition concentration (TGI) with 786-0 renal, in the test on LOX IMVI melanoma, in the test with SNB-75 CNS, with SK-MEL-28 melanoma, with U251 CNS and in the test on HT29 colon was over 100 µM each time. The TGI in the test with M14 melanoma and in the test with SW-620 colon was over 100 µM in each case.
Take `NC(=O)c1ncn(C2OC(CO)C(O)C2O)c1N` (centres undefined): the GI50 with 786-0 renal, with LOX IMVI melanoma, in the test with ACHN renal, in the test on SNB-75 CNS, with SK-MEL-28 melanoma and in the test on U251 CNS was over 100 µM throughout. Besides, the GI50 with HT29 colon, with M14 melanoma and in the test on SW-620 colon was over 100 µM throughout. Besides, the TGI in the test on 786-0 renal, in the test with LOX IMVI melanoma, in the test with ACHN renal, in the test on SNB-75 CNS, in the test on SK-MEL-28 melanoma and in the test with U251 CNS was over 100 µM each time. For the same compound, the total growth inhibition concentration (TGI) in the test with HT29 colon, in the test with M14 melanoma and in the test on SW-620 colon was over 100 µM in each case.
Take `Nc1ncc(C2[C@H](CNC(=O)c3cc(Br)c[nH]3)C(CNC(=O)c3cc(Br)c[nH]3)[C@@H]2c2cnc(N)[nH]2)[nH]1` (some centres undefined): the GI50 was over 50 µM in the test on 786-0 renal; over 50 µM in the test with LOX IMVI melanoma; over 50 µM in the test on ACHN renal; over 50 µM with U251 CNS; over 50 µM in the test on M14 melanoma; 48.1 µM in the test on K-562 leukemia. Besides, in the test with SW-620 colon, the GI50 is over 50 µM. Moreover, the total growth inhibition concentration (TGI) with 786-0 renal, with LOX IMVI melanoma, in the test with ACHN renal, with U251 CNS, with M14 melanoma and with K-562 leukemia was over 50 µM throughout. In the test with SW-620 colon, the TGI is over 50 µM.
On to `O=C(O)Cn1ccc(=O)c2cc([N+](=O)[O-])ccc21`, for which the TGI in the test on 786-0 renal, in the test with ACHN renal, in the test on SNB-75 CNS, in the test with SK-MEL-28 melanoma, with U251 CNS and in the test on HT29 colon was over 100 µM in each case. For the same compound, the TGI with M14 melanoma, in the test with K-562 leukemia and with SW-620 colon was over 100 µM throughout.
For the compound `CCOc1ccc(Nc2nc(-c3c(C)nc4ncccn34)cs2)cc1`, the GI50 in the test on 786-0 renal is 0.0392 µM; in the test on LOX IMVI melanoma, 0.0382 µM; in the test on ACHN renal, 0.0767 µM; in the test on SK-MEL-28 melanoma, 0.0673 µM; in the test with M14 melanoma, 0.017 µM; in the test on K-562 leukemia, under 0.01 µM. The GI50 with SW-620 colon was 0.0218 µM. The TGI was 18.4 µM in the test on 786-0 renal; 17.2 µM with LOX IMVI melanoma; 19.5 µM with ACHN renal; 20.7 µM with SK-MEL-28 melanoma; 13.6 µM in the test on M14 melanoma; over 100 µM in the test with K-562 leukemia. In addition, in the test with SW-620 colon, the concentration for total growth inhibition (TGI) is 16 µM.
Consider `COc1cc(/C=C\c2cc(OC)c(OC)c(OC)c2)cc(NS(=O)(=O)c2ccc(Cl)cc2)c1OC`, for which the GI50 with 786-0 renal was 0.666 µM; in the test on LOX IMVI melanoma, 0.566 µM; with ACHN renal, 0.586 µM; in the test on SK-MEL-28 melanoma, 1.14 µM; with U251 CNS, 0.461 µM; in the test on HT29 colon it was 0.348 µM. Also, the figures for the GI50 in the test with M14 melanoma, in the test with K-562 leukemia and with SW-620 colon were 0.391 µM, 0.306 µM and 0.343 µM, respectively. Besides, the TGI with 786-0 renal was over 100 µM; in the test on LOX IMVI melanoma, over 100 µM; in the test with ACHN renal, 29.9 µM; in the test with SK-MEL-28 melanoma, over 100 µM; in the test with U251 CNS, 20.7 µM; in the test with HT29 colon it was 10.2 µM. Also, the TGI with M14 melanoma was 22.9 µM; with K-562 leukemia it was 34.6 µM; in the test with SW-620 colon, over 100 µM.

For the origin of these results see PubChem BioAssay (NCI).
